# Experimental data reported in paper PMC9667936, “Functional mapping of the 14-3-3 hub protein as a guide to design 14-3-3 molecular glues” (Chemical Science, 2022).
# Where a SMILES comes first, the peptide text is derived from it. [ ]: non-standard residue; d: D form. ξ: configuration not given here. Phe(4-NO2) = N[C@@H](Cc1ccc([N+](=O)[O-])cc1)C(=O)O; ξAla(4-thiazolyl) = NC(Cc1cscn1)C(=O)O; pS = N[C@@H](COP(=O)(O)O)C(=O)O; β3hS = N[C@@H](CO)CC(=O)O; Nva = CCC[C@H](N)C(=O)O; ξβ3hS = NC(CO)CC(=O)O; βAla = NCCC(=O)O
# Molecular target: T1, 14-3-3γ (Homo sapiens, UniProt P61981)
# T1 construct: made in house; host or cells: E. coli NiCo21 (DE3)
# T1 sequence (P61981 1-247): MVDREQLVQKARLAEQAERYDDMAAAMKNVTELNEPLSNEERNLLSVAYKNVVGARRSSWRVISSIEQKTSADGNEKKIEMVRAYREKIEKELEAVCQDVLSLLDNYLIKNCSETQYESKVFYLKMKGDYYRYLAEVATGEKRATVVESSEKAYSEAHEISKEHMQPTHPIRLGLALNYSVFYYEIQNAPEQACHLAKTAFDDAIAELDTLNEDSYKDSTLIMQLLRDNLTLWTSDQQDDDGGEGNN
# Assay: Fluorescence anisotropy (FA) binary binding study: 14-3-3 titrated to fluorescein-labelled peptide
# Conditions: for Affinity Kd: 10 nM FITC-labelled peptide; for ΔG (FA): Table S1
# Outline: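 N-terminal His6-tagged full-length human 14-3-3γ expressed in E. coli, Ni-NTA purified and dialyzed into 25 mM HEPES pH 8.0, 100 mM NaCl, 10 mM MgCl2, 500 μM TCEP. Tag-cleaved 14-3-3σ truncated after T231 used for crystallography. Labelled peptides made by Fmoc solid-phase synthesis.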
# [1] = Table S4, point-mutated peptides, FA, replicate 1
# [2] = Table S4, point-mutated peptides, FA, replicate 2
# [3] = Table S4, point-mutated peptides, FA, replicate 3
# [4] = Table S4, calculated from FA Kd, mean of n = 3
# [5] = Table S4, from FA Kd, replicate 1
# [6] = Table S4, from FA Kd, replicate 2
# [7] = Table S4, from FA Kd, replicate 3
smiles,measurement,setting,value
CCC[C@H](NC(=O)[C@H](N)CCCCN)C(=O)N[C@@H](Cc1ccc([N+](=O)[O-])cc1)C(=O)NC(Cc1cscn1)C(=O)N[C@@H](COP(=O)(O)O)C(=O)N[C@@H](Cc1ccc([N+](=O)[O-])cc1)C(=O)N[C@@H](CO)CC(=O)NCCC(=O)N[C@@H](C)C(=O)N[C@@H](CCCCN)C(N)=O (stereo partly drawn) [5c] (H-[dK][Nva][Phe(4-NO2)][ξAla(4-thiazolyl)][pS][Phe(4-NO2)][β3hS][βAla]AK-NH2; N-terminus and C-terminus assumed),Affinity Kd,[1],3200 nM
same,Affinity Kd,[2],2200 nM
same,Affinity Kd,[3],2900 nM
same,Kd,"Table S4, point-mutated peptides, FA, 14-3-3 titrated to 10 nM FITC-labelled peptide, HEPES pH 7.4, room temperature, 4PL fit, mean of n = 3, read-out: Affinity Kd",2800 nM
same,Fold change to 1,"Table S4, FA Kd / Kd of 1, replicate 1",62.1
same,Fold change to 1,"Table S4, FA Kd / Kd of 1, replicate 2",31.0
same,Fold change to 1,"Table S4, FA Kd / Kd of 1, replicate 3",39.8
same,Fold change to 1,"Table S4, FA Kd of peptide divided by Kd of 1, mean of n = 3",44.3
same,ΔG,[4],-7.6 kcal/mol
same,ΔG,[5],-7.5 kcal/mol
same,ΔG,[6],-7.7 kcal/mol
same,ΔG,[7],-7.5 kcal/mol
same,ΔΔG to 1,"Table S4, ΔG minus ΔG of 1, FA, replicate 1",2.4 kcal/mol
same,ΔΔG to 1,"Table S4, ΔG minus ΔG of 1, FA, replicate 2",2.0 kcal/mol
same,ΔΔG to 1,"Table S4, ΔG minus ΔG of 1, FA, replicate 3",2.2 kcal/mol
same,ΔΔG to 1,"Table S4, ΔG of peptide minus ΔG of 1, FA, mean of n = 3",2.2 kcal/mol
CCC[C@H](NC(=O)[C@H](N)CCCCN)C(=O)N[C@@H](Cc1ccc([N+](=O)[O-])cc1)C(=O)NC(Cc1cscn1)C(=O)N[C@@H](COP(=O)(O)O)C(=O)N[C@@H](Cc1ccc([N+](=O)[O-])cc1)C(=O)NC(CO)CC(=O)NCCC(=O)N[C@@H](Cc1ccc([N+](=O)[O-])cc1)C(=O)N[C@@H](CCCCN)C(N)=O (stereo partly drawn) [compound 1] (H-[dK][Nva][Phe(4-NO2)][ξAla(4-thiazolyl)][pS][Phe(4-NO2)][ξβ3hS][βAla][Phe(4-NO2)]K-NH2),ΔG (FA),"calculated from FA KD, mean of n = 3",-10.5 kcal/mol
same,ΔG (FA),"from FA KD, replicate 1",-10.6 kcal/mol
same,ΔG (FA),"from FA KD, replicate 2",-10.6 kcal/mol
same,ΔG (FA),"from FA KD, replicate 3",-10.4 kcal/mol
same,ΔG,"Table S2, calculated from FA KD, mean of n = 3","-10,53 kcal/mol"
same,ΔG,"Table S2, from FA KD, replicate 1","-10,61 kcal/mol"
same,ΔG,"Table S2, from FA KD, replicate 2","-10,56 kcal/mol"
same,ΔG,"Table S2, from FA KD, replicate 3","-10,41 kcal/mol"
same,Affinity Kd,[1],52 nM
same,Affinity Kd,[2],71 nM
same,Affinity Kd,[3],74 nM
same,ΔG,[4],-9.8 kcal/mol
same,ΔG,[5],-9.9 kcal/mol
same,ΔG,[6],-9.7 kcal/mol
same,ΔG,[7],-9.7 kcal/mol
same,free binding energy ΔG (FA),from FA KD,-10.5 kcal/mol
